Experiments:
[1] = target: SRSF protein kinase 1 (Homo sapiens) (UniProt Q96SB4); conditions: Compound concentration 1000.0 nM
[2] = target: Death-associated protein kinase 3 (Homo sapiens) (UniProt O43293); conditions: Compound concentration 1000.0 nM
[3] = target: Homeodomain-interacting protein kinase 1 (Homo sapiens) (UniProt Q86Z02); conditions: Compound concentration 1000.0 nM
[4] = target: Mitogen-activated protein kinase kinase kinase 9 (Homo sapiens) (UniProt P80192); conditions: Compound concentration 1000.0 nM
[5] = target: AP2-associated protein kinase 1 (Homo sapiens) (UniProt Q2M2I8); conditions: Compound concentration 1000.0 nM
[6] = tested on: Receptor-type tyrosine-protein kinase FLT3 (Homo sapiens), P36888 [D835Y]; conditions: Compound concentration 1000.0 nM
[7] = tested on: Phosphatidylinositol 4,5-bisphosphate 3-kinase catalytic subunit alpha isoform (Homo sapiens), P42336 [I800L]; conditions: Compound concentration 1000.0 nM
[8] = target: Non-receptor tyrosine-protein kinase TYK2 (Homo sapiens) (UniProt P29597); conditions: Compound concentration 1000.0 nM
[9] = tested on: Proto-oncogene tyrosine-protein kinase receptor Ret (Homo sapiens), P07949 [V804M]; conditions: Compound concentration 1000.0 nM
[10] = target: T1, Alpha-2A adrenergic receptor (Homo sapiens) (UniProt P08913); conditions: Compound concentration 10.0 uM
T1 sequence (whole entry): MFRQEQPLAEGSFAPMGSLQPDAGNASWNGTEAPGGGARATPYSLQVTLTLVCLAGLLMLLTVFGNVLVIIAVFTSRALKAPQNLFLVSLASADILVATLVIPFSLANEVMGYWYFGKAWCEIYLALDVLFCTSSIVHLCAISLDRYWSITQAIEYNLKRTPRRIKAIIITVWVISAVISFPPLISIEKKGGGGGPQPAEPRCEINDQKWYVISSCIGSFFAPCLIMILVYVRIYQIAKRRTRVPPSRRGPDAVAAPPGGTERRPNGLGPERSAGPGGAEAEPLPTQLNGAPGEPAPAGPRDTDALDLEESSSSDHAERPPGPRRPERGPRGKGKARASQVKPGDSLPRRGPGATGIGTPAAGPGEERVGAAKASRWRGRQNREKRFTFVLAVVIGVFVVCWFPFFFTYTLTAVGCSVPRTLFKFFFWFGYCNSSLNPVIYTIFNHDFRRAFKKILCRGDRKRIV

[11] = target: Tyrosine-protein kinase Lck (Homo sapiens) (UniProt P06239); conditions: Compound concentration 1000.0 nM
[12] = target: Insulin receptor-related protein (Homo sapiens) (UniProt P14616); conditions: Compound concentration 1000.0 nM
[13] = target: Kappa-type opioid receptor (Homo sapiens) (UniProt P41145); conditions: Compound concentration 10.0 uM
Kappa-type opioid receptor (Homo sapiens), sequence (P41145 whole entry): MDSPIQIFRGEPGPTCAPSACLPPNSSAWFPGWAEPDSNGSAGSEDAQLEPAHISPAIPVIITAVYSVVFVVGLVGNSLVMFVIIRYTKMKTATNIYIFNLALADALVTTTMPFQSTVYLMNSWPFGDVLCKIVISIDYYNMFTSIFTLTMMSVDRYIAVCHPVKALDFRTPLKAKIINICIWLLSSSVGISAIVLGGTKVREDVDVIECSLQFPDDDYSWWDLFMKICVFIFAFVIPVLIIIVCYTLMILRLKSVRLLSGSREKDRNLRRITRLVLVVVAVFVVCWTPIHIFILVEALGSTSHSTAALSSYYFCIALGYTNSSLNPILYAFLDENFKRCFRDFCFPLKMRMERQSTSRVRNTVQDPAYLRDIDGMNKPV

[14] = target: Serine/threonine-protein kinase PAK 4 (Homo sapiens) (UniProt O96013); conditions: Compound concentration 1000.0 nM
Serine/threonine-protein kinase PAK 4 (Homo sapiens), sequence (O96013 whole entry, looked up): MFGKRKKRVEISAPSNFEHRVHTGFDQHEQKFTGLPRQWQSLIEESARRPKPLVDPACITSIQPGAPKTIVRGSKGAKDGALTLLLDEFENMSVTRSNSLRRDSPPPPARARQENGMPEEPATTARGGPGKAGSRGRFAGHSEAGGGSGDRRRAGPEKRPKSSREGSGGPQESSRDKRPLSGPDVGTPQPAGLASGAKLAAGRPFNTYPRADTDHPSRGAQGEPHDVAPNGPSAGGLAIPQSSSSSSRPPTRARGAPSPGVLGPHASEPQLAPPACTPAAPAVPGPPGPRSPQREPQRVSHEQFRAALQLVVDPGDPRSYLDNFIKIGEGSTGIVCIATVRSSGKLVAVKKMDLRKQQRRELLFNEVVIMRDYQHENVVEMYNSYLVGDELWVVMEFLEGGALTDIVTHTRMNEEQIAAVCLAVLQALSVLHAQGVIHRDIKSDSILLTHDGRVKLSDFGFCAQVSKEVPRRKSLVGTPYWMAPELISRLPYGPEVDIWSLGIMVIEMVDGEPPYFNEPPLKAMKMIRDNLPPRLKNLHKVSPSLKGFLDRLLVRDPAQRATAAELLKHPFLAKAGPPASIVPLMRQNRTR

[15] = target: Histamine H1 receptor (Homo sapiens) (UniProt P35367); conditions: Compound concentration 10.0 uM
[16] = target: Mitogen-activated protein kinase 9 (Homo sapiens) (UniProt P45984); conditions: Compound concentration 1000.0 nM
[17] = target: Ephrin type-A receptor 6 (Homo sapiens) (UniProt Q9UF33); conditions: Compound concentration 1000.0 nM
[18] = target: Proto-oncogene tyrosine-protein kinase ROS (Homo sapiens) (UniProt P08922); conditions: Compound concentration 1000.0 nM
Proto-oncogene tyrosine-protein kinase ROS (Homo sapiens), sequence (P08922 whole entry): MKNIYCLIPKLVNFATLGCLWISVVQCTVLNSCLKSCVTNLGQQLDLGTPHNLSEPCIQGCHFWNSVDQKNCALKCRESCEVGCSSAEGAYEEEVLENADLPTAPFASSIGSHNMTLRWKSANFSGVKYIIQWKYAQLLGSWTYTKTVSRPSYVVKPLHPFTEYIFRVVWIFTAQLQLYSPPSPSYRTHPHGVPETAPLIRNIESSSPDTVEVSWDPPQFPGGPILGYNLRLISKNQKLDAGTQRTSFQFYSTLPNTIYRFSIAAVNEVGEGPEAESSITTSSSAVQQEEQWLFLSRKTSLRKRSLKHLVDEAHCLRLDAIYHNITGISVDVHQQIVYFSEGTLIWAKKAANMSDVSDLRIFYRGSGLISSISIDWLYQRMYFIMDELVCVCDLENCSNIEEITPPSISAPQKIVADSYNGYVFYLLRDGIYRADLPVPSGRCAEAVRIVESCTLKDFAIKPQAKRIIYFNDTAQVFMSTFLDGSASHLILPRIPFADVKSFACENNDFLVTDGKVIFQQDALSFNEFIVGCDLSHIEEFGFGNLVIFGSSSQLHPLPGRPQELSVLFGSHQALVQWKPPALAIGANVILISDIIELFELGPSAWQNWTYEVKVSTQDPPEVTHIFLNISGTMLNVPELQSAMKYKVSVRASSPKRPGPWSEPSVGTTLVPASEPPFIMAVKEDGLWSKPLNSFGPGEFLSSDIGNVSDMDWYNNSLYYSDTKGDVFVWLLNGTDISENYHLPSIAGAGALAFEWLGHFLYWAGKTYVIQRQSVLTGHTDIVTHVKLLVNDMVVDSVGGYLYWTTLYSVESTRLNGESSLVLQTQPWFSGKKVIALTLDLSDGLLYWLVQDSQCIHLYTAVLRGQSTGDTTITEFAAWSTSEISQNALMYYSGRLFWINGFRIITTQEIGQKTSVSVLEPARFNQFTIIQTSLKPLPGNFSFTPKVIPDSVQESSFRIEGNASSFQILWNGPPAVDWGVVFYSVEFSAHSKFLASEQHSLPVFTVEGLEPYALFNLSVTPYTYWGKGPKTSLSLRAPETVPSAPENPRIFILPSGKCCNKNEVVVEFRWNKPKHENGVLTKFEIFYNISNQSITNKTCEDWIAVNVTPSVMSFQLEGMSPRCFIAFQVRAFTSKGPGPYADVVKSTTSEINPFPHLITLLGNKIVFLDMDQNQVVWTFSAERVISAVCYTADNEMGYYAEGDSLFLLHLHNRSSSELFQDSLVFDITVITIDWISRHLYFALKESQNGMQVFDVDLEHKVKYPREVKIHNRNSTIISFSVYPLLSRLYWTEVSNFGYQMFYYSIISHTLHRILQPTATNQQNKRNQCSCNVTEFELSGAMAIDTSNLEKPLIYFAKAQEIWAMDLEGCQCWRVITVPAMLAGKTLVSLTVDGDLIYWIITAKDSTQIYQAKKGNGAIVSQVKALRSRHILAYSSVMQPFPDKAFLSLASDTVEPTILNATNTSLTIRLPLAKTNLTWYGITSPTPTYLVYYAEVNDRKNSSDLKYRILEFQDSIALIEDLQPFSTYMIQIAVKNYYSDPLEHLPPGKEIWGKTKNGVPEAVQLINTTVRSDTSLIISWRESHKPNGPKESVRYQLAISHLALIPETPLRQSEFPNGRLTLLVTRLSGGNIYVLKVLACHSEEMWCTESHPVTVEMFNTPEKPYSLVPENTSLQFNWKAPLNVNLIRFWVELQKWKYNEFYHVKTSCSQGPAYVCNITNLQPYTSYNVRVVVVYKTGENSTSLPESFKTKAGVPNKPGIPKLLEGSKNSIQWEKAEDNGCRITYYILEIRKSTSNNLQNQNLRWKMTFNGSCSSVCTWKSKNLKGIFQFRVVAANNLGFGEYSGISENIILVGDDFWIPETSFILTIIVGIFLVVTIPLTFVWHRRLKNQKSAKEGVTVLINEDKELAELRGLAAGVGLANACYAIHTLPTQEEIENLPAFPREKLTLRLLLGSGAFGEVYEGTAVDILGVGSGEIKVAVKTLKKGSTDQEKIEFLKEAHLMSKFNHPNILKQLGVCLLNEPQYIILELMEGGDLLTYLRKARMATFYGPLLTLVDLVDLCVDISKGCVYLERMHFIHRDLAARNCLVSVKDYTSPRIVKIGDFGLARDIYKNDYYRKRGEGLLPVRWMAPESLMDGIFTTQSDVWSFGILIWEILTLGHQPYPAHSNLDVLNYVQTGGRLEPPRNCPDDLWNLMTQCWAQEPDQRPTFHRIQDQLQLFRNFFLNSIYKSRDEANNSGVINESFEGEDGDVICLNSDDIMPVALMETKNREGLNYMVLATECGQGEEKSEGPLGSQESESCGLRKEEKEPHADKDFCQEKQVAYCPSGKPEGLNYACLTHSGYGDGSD

[19] = target: Receptor tyrosine-protein kinase erbB-3 (Homo sapiens) (UniProt P21860); conditions: Compound concentration 1000.0 nM
[20] = target: Peripheral plasma membrane protein CASK (Homo sapiens) (UniProt O14936); conditions: Compound concentration 1000.0 nM
[21] = target: Alpha-1B adrenergic receptor (Homo sapiens) (UniProt P35368); conditions: Compound concentration 10.0 uM
[22] = target: Aurora kinase B (Homo sapiens) (UniProt Q96GD4); conditions: Compound concentration 1000.0 nM
[23] = target: Histamine H4 receptor (Homo sapiens) (UniProt Q9H3N8); conditions: Compound concentration 10.0 uM
[24] = target: Serine/threonine-protein kinase B-raf (Homo sapiens) (UniProt P15056); conditions: Compound concentration 1000.0 nM
[25] = target: MAP kinase-interacting serine/threonine-protein kinase 1 (Homo sapiens) (UniProt Q9BUB5); conditions: Compound concentration 1000.0 nM
MAP kinase-interacting serine/threonine-protein kinase 1 (Homo sapiens), sequence (Q9BUB5 whole entry, looked up): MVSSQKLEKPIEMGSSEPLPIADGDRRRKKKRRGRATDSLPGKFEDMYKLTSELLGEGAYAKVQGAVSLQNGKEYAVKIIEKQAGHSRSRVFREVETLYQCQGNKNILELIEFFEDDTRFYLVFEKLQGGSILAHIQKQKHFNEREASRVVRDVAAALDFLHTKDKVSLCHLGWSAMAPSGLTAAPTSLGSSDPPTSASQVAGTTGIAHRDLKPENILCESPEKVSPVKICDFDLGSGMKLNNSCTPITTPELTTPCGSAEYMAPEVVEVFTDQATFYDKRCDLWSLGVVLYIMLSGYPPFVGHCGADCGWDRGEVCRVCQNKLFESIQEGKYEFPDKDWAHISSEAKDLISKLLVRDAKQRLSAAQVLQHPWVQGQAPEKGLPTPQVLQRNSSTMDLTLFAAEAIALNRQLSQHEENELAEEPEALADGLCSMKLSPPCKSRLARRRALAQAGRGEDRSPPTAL

[26] = tested on: Epidermal growth factor receptor (Homo sapiens), P00533 [L858R,T790M]; conditions: Compound concentration 1000.0 nM
[27] = target: G protein-coupled receptor kinase 4 (Homo sapiens) (UniProt P32298); conditions: Compound concentration 1000.0 nM
[28] = target: Serine/threonine-protein kinase tousled-like 1 (Homo sapiens) (UniProt Q9UKI8); conditions: Compound concentration 1000.0 nM
[29] = target: Serine/threonine-protein kinase BRSK1 (Homo sapiens) (UniProt Q8TDC3); conditions: Compound concentration 1000.0 nM
[30] = target: Leukocyte tyrosine kinase receptor (Homo sapiens) (UniProt P29376); conditions: Compound concentration 1000.0 nM
Leukocyte tyrosine kinase receptor (Homo sapiens), sequence (P29376 whole entry): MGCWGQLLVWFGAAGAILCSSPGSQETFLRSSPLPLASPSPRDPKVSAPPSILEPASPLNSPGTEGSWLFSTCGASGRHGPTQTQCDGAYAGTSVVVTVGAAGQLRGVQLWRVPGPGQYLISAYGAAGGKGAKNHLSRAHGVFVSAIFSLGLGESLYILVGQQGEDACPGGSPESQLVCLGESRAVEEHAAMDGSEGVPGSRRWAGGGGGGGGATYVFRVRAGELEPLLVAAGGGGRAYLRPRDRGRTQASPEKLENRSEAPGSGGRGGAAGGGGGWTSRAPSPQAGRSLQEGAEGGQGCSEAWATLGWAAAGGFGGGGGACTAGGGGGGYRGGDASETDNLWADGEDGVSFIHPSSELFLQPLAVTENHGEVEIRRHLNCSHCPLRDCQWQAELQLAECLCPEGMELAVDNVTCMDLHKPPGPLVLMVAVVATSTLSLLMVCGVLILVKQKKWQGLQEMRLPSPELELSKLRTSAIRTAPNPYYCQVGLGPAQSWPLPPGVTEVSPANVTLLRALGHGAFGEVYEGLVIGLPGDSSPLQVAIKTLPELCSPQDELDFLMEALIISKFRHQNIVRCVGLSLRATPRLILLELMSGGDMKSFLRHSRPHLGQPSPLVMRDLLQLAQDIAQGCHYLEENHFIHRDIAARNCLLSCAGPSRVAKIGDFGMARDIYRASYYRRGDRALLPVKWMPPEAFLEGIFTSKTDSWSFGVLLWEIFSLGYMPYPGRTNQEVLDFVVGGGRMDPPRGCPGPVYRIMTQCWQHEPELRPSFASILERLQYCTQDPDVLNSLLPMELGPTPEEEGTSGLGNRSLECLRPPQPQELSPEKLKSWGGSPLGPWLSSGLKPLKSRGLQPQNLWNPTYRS

[31] = target: Mitogen-activated protein kinase kinase kinase kinase 4 (Homo sapiens) (UniProt O95819); conditions: Compound concentration 1000.0 nM
[32] = target: Dual specificity tyrosine-phosphorylation-regulated kinase 1B (Homo sapiens) (UniProt Q9Y463); conditions: Compound concentration 1000.0 nM
[33] = target: Activated CDC42 kinase 1 (Homo sapiens) (UniProt Q07912); conditions: Compound concentration 1000.0 nM
[34] = target: Cyclin-dependent kinase 14 (Homo sapiens) (UniProt O94921); conditions: Compound concentration 1000.0 nM
[35] = tested on: Epidermal growth factor receptor (Homo sapiens), P00533 [T790M]; conditions: Compound concentration 1000.0 nM
[36] = target: 5-hydroxytryptamine receptor 6 (Homo sapiens) (UniProt P50406); conditions: Compound concentration 10.0 uM
[37] = target: Mitogen-activated protein kinase 15 (Homo sapiens) (UniProt Q8TD08); conditions: Compound concentration 1000.0 nM
[38] = tested on: Mast/stem cell growth factor receptor Kit (Homo sapiens), P10721 [D816H]; conditions: Compound concentration 1000.0 nM
[39] = target: Ephrin type-B receptor 2 (Homo sapiens) (UniProt P29323); conditions: Compound concentration 1000.0 nM

Death-associated protein kinase 3 (Homo sapiens), sequence (O43293 whole entry, looked up): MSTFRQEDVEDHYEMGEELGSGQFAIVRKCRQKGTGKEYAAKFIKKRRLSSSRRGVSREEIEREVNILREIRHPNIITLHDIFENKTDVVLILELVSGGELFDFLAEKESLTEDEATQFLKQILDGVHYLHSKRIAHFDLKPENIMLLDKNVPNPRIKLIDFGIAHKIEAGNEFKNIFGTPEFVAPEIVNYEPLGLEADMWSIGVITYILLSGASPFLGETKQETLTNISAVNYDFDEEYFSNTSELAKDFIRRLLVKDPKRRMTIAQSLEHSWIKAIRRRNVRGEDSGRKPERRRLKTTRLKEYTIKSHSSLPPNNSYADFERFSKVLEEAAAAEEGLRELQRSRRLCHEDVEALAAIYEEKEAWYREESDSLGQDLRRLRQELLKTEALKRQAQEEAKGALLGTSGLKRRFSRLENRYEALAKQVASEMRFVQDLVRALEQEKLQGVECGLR

NS(=O)(=O)c1cc(NC(=O)C2(c3ccccc3Cl)CC2)ccc1Oc1cccc(Cl)c1 [BAY-207]
inactive: residual activity [1] 71% | residual activity [2] 100% | residual activity [3] 91% | residual activity [4] 67% | residual activity [5] 100% | residual activity [6] 100% | residual activity [7] 100% | residual activity [8] 80% | residual activity [9] 100% | inhibition [10] 40.8% | residual activity [11] 80% | residual activity [12] 95% | inhibition [13] 21.2% | residual activity [14] 74% | inhibition [15] 17.9% | residual activity [16] 100% | residual activity [17] 54% | residual activity [18] 82% | residual activity [19] 84% | residual activity [20] 89% | inhibition [21] -8.97% | residual activity [22] 84% | inhibition [23] 0.09% | residual activity [24] 71% | residual activity [25] 99% | residual activity [26] 88% | residual activity [27] 100% | residual activity [28] 99% | residual activity [29] 82% | residual activity [30] 73% | residual activity [31] 100% | residual activity [32] 86% | residual activity [33] 82% | residual activity [34] 63% | residual activity [35] 100% | inhibition [36] -4.73% | residual activity [37] 65% | residual activity [38] 86% | residual activity [39] 74%

NS(=O)(=O)c1cc(NC(=O)Cc2ccccc2)ccc1Oc1cccc(Cl)c1 [BAY-1797]
inactive: residual activity [1] 62% | residual activity [2] 95% | residual activity [3] 80% | residual activity [4] 100% | residual activity [5] 88% | residual activity [6] 95% | residual activity [7] 82% | residual activity [8] 67% | residual activity [9] 100% | inhibition [10] 6.31% | residual activity [11] 70% | residual activity [12] 100% | inhibition [13] 20.3% | residual activity [14] 87% | inhibition [15] 15.7% | residual activity [16] 83% | residual activity [17] 83% | residual activity [18] 81% | residual activity [19] 100% | residual activity [20] 86% | inhibition [21] -0.38% | residual activity [22] 58% | inhibition [23] -3.13% | residual activity [24] 96% | residual activity [25] 79% | residual activity [26] 75% | residual activity [27] 100% | residual activity [28] 99% | residual activity [29] 91% | residual activity [30] 87% | residual activity [31] 71% | residual activity [32] 100% | residual activity [33] 79% | residual activity [34] 95% | residual activity [35] 100% | inhibition [36] 17.2% | residual activity [37] 68% | residual activity [38] 76% | residual activity [39] 100%

Reference: ChEMBL document CHEMBL4507265 (2021)
